Test results taken from patent US10287265B2, “Enantiomers of 8-hydroxyquinoline derivatives and the synthesis thereof” (AVIDIN Co. Ltd., priority 2015, dated 2019).

Tested on: BALB/c ear skin graft on C57BL/6 recipient mice
Test: Mouse skin transplantation, graft rejection scoring
Format: in vivo
Conditions: 5 mg/kg once every day from transplantation; Example 2 orally, tacrolimus intraperitoneal; scoring at day 9 and day 10
Experimental: Mouse skin transplantation is a standard method to assay host T cell responses to MHC-disparate donor antigens, which protocol was followed in the present example (Garrod and Cahalan; 2008). Briefly, WT C57BL/6 recipient mice (8-12 weeks old) and WT BALB/c donor mice (8-12 weeks old) were anesthetized with a combination of 10 mg/kg Xylazine and 100 mg/kg Ketamine administered by i.p. injection and 0.05 mg/kg Buprenorphine was administered by subcutaneous injection for analgesia. Ear skin (1.0 cm2) from the WT BALB/c donor mouse was grafted onto the flank of the WT C57BL/6 recipient. The implanted skin (graft) was covered with a sterile bandage, which was removed on day 7 post-transplant.
Recipients received either no treatment (controls), or treated with compound according to Example 2 orally at 5 mg/kg dose, once every day until the end of the experiment from the day of transplantation. […]
Different scores were used to define the quality of the grafts: intact grafts (Score 0), early stages of rejection (Score 1-4, corresponding to first clear signals of graft rejection: 1; >25% rejection rate: 2; >50% rejection rate: 3; >75% rejection rate: 4) up to complete graft rejection (Score 5). […] Average scores with SEM were calculated for each group.

Cc1ccnc(N[C@H](c2ccc(C(F)(F)F)cc2)c2ccc3cccnc3c2O)n1 [Example 2, 7-[(R)-[(4-Methylpyrimidin-2-yl)amino][4-(trifluoromethyl)phenyl]methyl]quinolin-8-ol] was tested, and the “skin graft rejection score (0-5)” value was “smaller score values both on day 9 and on day 10”.
